This note sets out measurements from patent US11813249B2, “Combination therapy for treatment of restenosis” (Mercator MedSystems, Inc., priority 2017, dated 2023).

One series in a line: in vivo. The text has this:
Overview: The purpose of this study was to evaluate the safety and pharmokinetic profile of Torisel® and dexamethasone when delivered in an exaggerated dose to peripheral vasculature in a porcine model of balloon overstretch artery stenosis.
Methods: Four juvenile porcine subjects were used on this study to assess tissue safety and pharmacokinetic profile. The animals received femoral artery injury induced via oversizing a balloon (˜20-30% overstretch). Three animals received subsequent treatment with the Bullfrog® catheter of Torisel® (2 mg/mL) with dexamethasone (6 mg/mL) and contrast medium (20%) into the adventitia and perivascular tissue around the peripheral arteries. The fourth animal received subsequent treatment with the Bullfrog® catheter of saline and contrast medium (20%) into the adventitia and perivascular tissue around the peripheral arteries. Blood samples were taken at baseline, and post-implant 20 minutes, 1 hour, 4 hours, 24 hours, 3 days, 7 days, and just prior to termination for pharmacokinetic assessment. […] The other three animals were survived for 14 days. At day 14, blood was collected, animals were euthanized and a necropsy was performed.

Series [1] deals with human aortic VSMCs. Particulars: 12 hours; for LDH release (necrosis and cytolysis): increasing drug concentrations, with or without 50 nM dexamethasone, FIG. 18A-C; for necrotic cytotoxicity (LDH): single drug or 500 nM TEM or PAC with DEX 10, 50, 500 nM, FIG. 19C. (Release of lactate dehydrogenase indicates damage to the cell membrane.)
Description: At harvest, plates were centrifuged at 800 rpm in a clinical centrifuge, and supernatant was carefully removed and assayed for lysed cells by measuring the LDH released into the culture media by ELISA, according to manufacturer instructions. Absorbance readings were taken using a microtiter plate reader (Tecan). […] Data in FIG. 18A represent the LDH release in the presence of increasing concentrations of sirolimus or sirolimus+50 nM dexamethasone. […] Data represent the average of 9 replicate wells per condition and error bars represent the standard deviation of the 9 replicates.
Treated cells were then incubated for 12 hours. At harvest, plates were centrifuged at 800 rpm in a clinical centrifuge, and supernatant was carefully removed and assayed for LDH by ELISA according to manufacturer instructions. Absorbance readings were taken using a microtiter plate reader (Tecan). Data represent the average absorbance readings. Error bars represent the standard deviation amongst replicates.
Series [2] concerns human aortic VSMCs. Kind of series: Apoptosis by Caspase 3 ELISA in drug-treated VSMCs. Particulars: 12 hours; for apoptosis (Caspase 3 activation): increasing drug concentrations, with or without 50 nM dexamethasone, FIG. 17A-C. (In general: ELISA stands for enzyme-linked immunosorbent assay.)
Description: At harvest, cells were gently lysed and a Caspase 3 ELISA was performed (Cell Signaling Technologies, Cat #7190). Absorbance readings were taken using a microtiter plate reader (Tecan). […] Data represent the average of 9 replicate wells per condition and error bars represent the standard deviation of the 9 replicates. Baseline levels of VSMC apoptosis were obtained using vehicle controls and values were set to zero. The percent change in apoptosis in the presence of drug was determined from baseline (FIG. 17A-C).
Cells were then incubated for 12 hours. At harvest, plates were centrifuged at 800 rpm in a clinical centrifuge, and supernatant was carefully removed. Cells were then fixed and permeabilized and assayed for cytoplasmic caspase 3 levels by ELISA, according to manufacturer instructions (Cell Signaling Technologies). Absorbance readings were taken using a microtiter plate reader (Tecan). Data represent the average absorbance readings. Error bars represent the standard deviation amongst replicates.
Series [3] has as its system human aortic VSMCs. Kind of series: MTT metabolic activity / proliferation of PDGF-stimulated VSMCs. It is filed as cell-based. To be noted: PDGF 10 ng/mL; for inhibitory activity in the MTT assay: Example 11, 1 nM to 100 μM for 12 hours; for inhibition of metabolic activity and proliferation (MTT assay): drug 0, 1, 10, 100, 500 nM, with or without 50 nM dexamethasone, FIGS. 14A-C. The protocol:
Drug-specific effects on cellular metabolic activity, pro-inflammatory cytokine production and cytotoxicity were examined. As a cytotoxic control for disruption of metabolic activity, we used actinomycin D (100 ng/mL or […]). As a negative control, vehicle (5% (v/v) sterile DMSO in saline) was used. Following an 8 hour incubation in the presence of drug and stim (PDGF), MTT substrate was added and incubated for an additional 4 hrs prior to measurement. […] Data represent the average absorbance readings.
After 8 h incubation, MTT substrate was added and incubated for an additional 4 hrs prior to measurement (T=12 hours). […] Data represent the average absorbance readings. […] FIG. 19A presents the percent of inhibition that was identified in the presence of single or combination drugs. Low doses of all drugs, administered individually, had minimal inhibitory properties, as compared to high dose of each drug.
(§1) A study was performed to assess the ability of a range of drug or drug combinations to induce cytotoxicity in PDGF-stimulated aortic smooth muscle and endothelial cells in vitro. […] Utilizing protocols for EC and VSMC stimulation mediated by the growth factor, PDGF, cells were incubated in drug at concentration ranges from 0, 1, 10, 100 nM, 1, 10, 100 μM for 12 hours prior to assessment for cellular activation and cytotoxicity. Prior to harvest, BrdU was added to each well for 6 hours for DNA incorporation. […] Data represent the average absorbance readings. […] Cellular activation was monitored by metabolic activity and cellular proliferation. Metabolic activity was measured using the MTT assay to monitor enzyme-dependent metabolite production while proliferation was measured using 5-bromo-2′-deoxyuridine (BrdU) ELISA to monitor DNA synthesis.
(In general: Tetrazolium dyes change colour on reduction, which living cells bring about.)

The test system of series [4] is TNFα production of human aortic VSMCs. Kind of series: TNFα ELISA of supernatant of PDGF-stimulated VSMCs. It is filed as cell-based. To be noted: for PDGF-induced TNFα levels: 48 h, single drug 0, 10, 50, 500 nM, or 500 nM TEM or PAC with DEX 10, 50, 500 nM, FIG. 19E. The protocol: Following a 48 hour incubation in the presence of drug and stimulant (PDGF), 50 uL of supernatant from each well was collected and ELISAs were performed to measure TNFα levels. Pro-inflammatory cytokine expression was examined under these conditions by measuring TNFα levels in cell supernatant after 48 h by enzyme-linked immunoassay (ELISA; Peprotech #900-T16, #900-T25).

Series [5] concerns IL6 cytokine production of human aortic VSMCs. Kind of series: IL6 ELISA of supernatant of PDGF-stimulated VSMCs. Particulars: for PDGF-induced IL6 levels: 48 h, single drug 0, 10, 50, 500 nM, or 500 nM TEM or PAC with DEX 10, 50, 500 nM, FIG. 19D. The format is cell-based. The protocol:
Following a 48 hour incubation in the presence of drug and stimulant (PDGF), 50 uL of supernatant from each well was collected and ELISAs were performed to measure IL6 levels. Pro-inflammatory cytokine expression was examined under these conditions by measuring IL6 levels in cell supernatant after 48 h by enzyme-linked immunoassay (ELISA; Peprotech #900-T16, #900-T25).

Series [6] concerns human aortic VSMCs. Briefly: BrdU ELISA proliferation of PDGF-stimulated VSMCs. The format is cell-based. Particulars: Example 11; 1 nM to 100 μM for 12 hours; PDGF 10 ng/mL; compared to vehicle control and actinomycin D; FIG. 20. As to the method: as §1
The nature of series [7]: Example 13 porcine study: blood and tissue pharmacokinetics. The protocol: (§2) Methods. Twelve animals were evaluated for tissue safety and pharmacokinetic blood and tissue profiles. The animals received vessel injury induced via oversizing a balloon at ˜20-30% overstretch, then receiving subsequent Bullfrog® catheter delivery of 4 mg/mL Torisel® or saline placebo control into the adventitia and perivascular tissue around the coronary and femoral arteries. Blood samples for pharmacokinetic analysis were taken at 5 minutes, 30 minutes, 1 hour, 24 hours, 72 hours, 7 Days, 28 Days, and termination. Animals were terminated at 90 days. Gross examination of all treated tissues and surrounding structures was performed. […] Histological analysis was performed on all other collected arterial tissues.

On the set-up of series [8]: species or system swine. Particulars: pig, in vivo. The protocol:
The study design included a total of eleven (11) animals; 8 of which received angioplasty overstretch followed by single dose of test article in bilateral superficial femoral arteries administered for a total in-life phase of 1 hour (n=2), 3 days (n=2), 7 days (n=2) and 28 days (n=2) and three additional animals that served as control by undergoing angioplasty overstretch followed by infusion of saline and surviving for 3 days (n=1), 7 days (n=1) and 28 days (n=1). A carotid artery access was utilized for all interventional procedures. […] Animals survived to 1 hour (n=2), 3 days (n=2), 7 days (n=2) and 28 days (n=2), for detailed histopathology and safety evaluation. Following survival to the designated endpoint, animals underwent blood collection, then were euthanized and necropsied followed by histological examination.
A prospective study of a single dose (357 μg in 1.5 ml) of adventitially delivered study drug (Torisel®) was conducted. All doses contained 50% contrast medium for distribution tracking. Each pig received bilateral injections in the mid femoral region. 2 pigs each were sacrificed at 1 hour, 3 days, 7 days and 28 days, for a total of 8 pigs. […] 3 pigs were used as control in which treatment sites were subjected to overstretch injury followed by infusion of saline via the Mercator Bullfrog® catheter and sacrificed at 3 days, 7 days or 28 days (1 pig at each time point). […]

The conditions of series [9]: dosage of 4 mg/mL temsirolimus. As to the method:
as §2

The subject of the next series is external iliac arteries. Briefly: Example 15 WHHL rabbit model of balloon overstretch artery stenosis: histopathology. The format is in vivo, Watanabe heritable hyperlipidemic (WHHL) rabbit. To be noted: relative to dexamethasone alone or vehicle group.

“Also recorded” adds a separate entry of the source.

Description for external iliac arteries: Overview. A rabbit study was performed to evaluate the tissue effect of Torisel® (Tem) and dexamethasone (Dex) when delivered as combined or alone to peripheral vasculature in a Watanabe heritable hyperlipidemic (WHHL) rabbit model of balloon overstretch artery stenosis. Each animal was subject to balloon angioplasty and treatment in each of the two (2) external iliac arteries. Four subjects were assigned to each of three groups: Torisel®, dexamethasone, or combination. Three subjects were assigned to each of two groups: control (vehicle delivery) or balloon only. Two New Zealand white rabbits were assigned to treatment with balloon only in one iliac and were naïve to any treatment in the other iliac.
Methods. Twenty animals were evaluated for tissue effect of peri-vascular injection of test and control articles. […] The animals received vessel injury induced via oversizing a balloon (˜20-30% overstretch). Animals were divided into the six groups with varying balloon injury targets and various combinations of test and control articles. The test and control articles were injected into the peri-vascular tissue using the Bullfrog® catheter. Animals were recovered and survived for ˜28 days. At ˜28 days, animals were sacrificed, a gross pathology performed and tissue harvested for histopathology analysis.

Regarding `C[C@@H]1C[C@H]2[C@@H]3CCC4=CC(=O)C=C[C@]4(C)[C@@]3(F)[C@@H](O)C[C@]2(C)[C@@]1(O)C(=O)CO` [dexamethasone], in the series “in vivo” (pig, in vivo), the “dexamethasone levels in plasma at the 24-hour time point and after” value is “below LLOQ”; the “tissue levels at 14 days” value is listed as “below LLOQ”. In addition, in the series on human aortic VSMCs [1], the “LDH release (necrosis and cytolysis)” value is on record as “suppressed LDH release compared to vehicle”; the “necrotic cytotoxicity (LDH)” value is “not observed”. Further, in the series on human aortic VSMCs [2], the “apoptosis (Caspase 3 activation)” value is recorded as “did not induce significant apoptosis”.
On to `CC(=O)O[C@H]1C(=O)[C@@]2(C)[C@H]([C@H](OC(=O)c3ccccc3)[C@]3(O)C[C@H](OC(=O)[C@H](O)[C@@H](NC(=O)c4ccccc4)c4ccccc4)C(C)=C1C3(C)C)[C@]1(OC(C)=O)CO[C@@H]1C[C@@H]2O` [paclitaxel], for which, in the series with human aortic VSMCs [3], the “inhibitory activity in the MTT assay” value is listed as “at higher concentrations had inhibitory activity”; the “inhibition of metabolic activity and proliferation (MTT assay)” value is on record as “at higher concentrations had inhibitory activity”. Besides, the “PDGF-induced TNFα levels” value in [4] was “dose-dependent upregulation”. Moreover, the TNFα production entry in [4] (48 hour incubation, increasing drug concentrations, with or without 50 nM dexamethasone, FIGS. 15A-C) was “activated pro-inflammatory cytokine expression; also recorded: induced IL6 and TNFα production by SMCs at all doses tested; also recorded: increased steadily”. Further, the “PDGF-induced IL6 levels” value in series [5] is listed as “dose-dependent upregulation”. In addition, the IL6 production result in [5] (48 hour incubation, increasing drug concentrations, with or without 50 nM dexamethasone, FIGS. 16A-C) is “induced IL6 and TNFα production by SMCs at all doses tested; also recorded: no significant change in IL6 levels between 50 and 500 nM”. Further, the “inhibition of BrdU incorporation (cellular proliferation)” value in the series on human aortic VSMCs [6] is “approached the degree of inhibition of actinomycin D”. Further, in the series with human aortic VSMCs [1], the “LDH release (necrosis and cytolysis)” value is recorded as “dose-dependent relationship”; the “necrotic cytotoxicity (LDH)” value is given as “demonstrated necrotic cytotoxicity”. The “average increase in apoptosis from vehicle baseline” value with human aortic VSMCs [2] (Caspase 3 ELISA, vehicle baseline set to zero) is recorded as not above 173%. In the series with human aortic VSMCs [2], the “apoptosis (Caspase 3 activation)” value is “induced in a dose-dependent manner”. The “apoptosis (cytoplasmic caspase 3) compared to vehicle control” value in the series with human aortic VSMCs [2] (single drug or 500 nM TEM or PAC with DEX 10, 50, 500 nM, FIG. 19B) was “promote apoptosis (lack of inhibition)”.
In the case of `CO[C@H]1C[C@@H]2CC[C@@H](C)[C@@](O)(O2)C(=O)C(=O)N2CCCC[C@H]2C(=O)O[C@H]([C@H](C)C[C@@H]2CC[C@@H](O)[C@H](OC)C2)CC(=O)[C@H](C)/C=C(\C)[C@@H](O)[C@@H](OC)C(=O)[C@H](C)C[C@H](C)/C=C/C=C/C=C/1C` [sirolimus], the “relation of observed blood concentrations to dose” value in series [7] (52 mg versus 5.2 mg Torisel) is reported as “proportional to dose”. Besides, in [7] (termination at 90 days), the “homogenized vascular tissue levels” value is given as “all below LLOQ”; the “whole blood levels at 28 days and at termination” value is “below LLOQ”. Moreover, the “whole blood levels, time course” value in series [7] (up to 52 mg or 5.2 mg Torisel, perivascular, coronary and peripheral arteries) is “peaked at early time points, declined over time to Day 7”.
In the case of `CO[C@H]1C[C@@H]2CC[C@@H](C)[C@@](O)(O2)C(=O)C(=O)N2CCCC[C@H]2C(=O)O[C@H]([C@H](C)C[C@@H]2CC[C@@H](OC(=O)C(C)(CO)CO)[C@H](OC)C2)CC(=O)[C@H](C)/C=C(\C)[C@@H](O)[C@@H](OC)C(=O)[C@H](C)C[C@H](C)/C=C/C=C/C=C/1C` [temsirolimus], in the series on human aortic VSMCs [3], the “inhibitory activity in the MTT assay” value is reported as “at higher concentrations had inhibitory activity”; the “inhibition of metabolic activity and proliferation (MTT assay)” value is “at higher concentrations had inhibitory activity”. The “PDGF-induced TNFα levels” value in series [4] is reported as “dose-dependent reduction”. In series [5], the “PDGF-induced IL6 levels” value is “dose-dependent reduction”. Moreover, the “inhibition of BrdU incorporation (cellular proliferation)” value with human aortic VSMCs [6] is recorded as “approached the degree of inhibition of actinomycin D”. Besides, in series [8], the “time post-dosing up to which drug was measured in the local vascular tissue” value is “up to 28 days”. Further, in series [7] (pig, in vivo), the “relation of observed blood concentrations to dose” value is on record as “proportional to dose”; the “whole blood levels at 28 days and at termination” value was “below LLOQ”. Besides, the mineralization in tissues entry in [9] was “not previously seen”. Also, in “in vivo” (Torisel 2 mg/mL with dexamethasone 6 mg/mL, perivascular, peripheral arteries), the “temsirolimus levels in the blood, time course” value is recorded as “peaked at early time points, declined over time to 7 days”. In addition, the “temsirolimus levels in the blood at termination” value in “in vivo” (day 14) is “below the lower limit of quantitation (LLOQ)”. Moreover, the “level in homogenized vascular tissue at term” value in “in vivo” (day 14, one value per test animal) was found to be 97.5 ng/g. The “level in vascular tissue at term, molar equivalent” value in the series “in vivo” (day 14, printed as equivalent) was determined as 94.7 nM. In “in vivo” (pig, in vivo, level in homogenized vascular tissue at term, day 14, one value per test animal), this molecule gave a concentration at 14 days of 50.3 ng/g. In “in vivo” (pig, in vivo, level in vascular tissue at term, molar equivalent, day 14, printed as equivalent), the concentration at 14 days was 48.8 nM. The “% HHF-35 positive intimal/medial area (marker of vascular smooth muscle cell viability)” value with external iliac arteries is “smaller”.
